Test results taken from PubChem BioAssay (NCI).
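Exposure lasted 48 hours, with cells grown in 96-well plates and compounds tested at five concentrations. The concentration for full growth arrest is given as TGI.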 Where a SMILES comes first, the peptide text is derived from it. [ ]: non-standard residue; d: D form. The star is where a group is joined. NMeAc5c = CNC1(C(=O)O)CCCC1; Boc = CC(C)(C)OC(=O)*; OBn = c1ccc(CO*)cc1

system: HCC-2998 colon; assay: inhibition of tumour cell growth, NCI panel, 48 h

| Compound | TGI [µM] |
| --- | --- |
| O=C1/C(=C/c2ccccc2)N=C2Sc3c(nc[nH]c3=O)N12 | > 100 |
| C=CC1(C)CCC2C(=CCC3C2(C)CC(O)C(O)C3(C)COC2OC(C(=O)O)C(O)C(O)C2O)C1 (stereo not drawn) (tested in a mixture with another compound) | > 100 |
| N#Cc1c(N2CCCC2)ncn(-c2ccccc2)c1=O | > 100 |
| O=[N+]([O-])c1ccc2c(c1)/C(=N/N=C1c3ccccc3Cc3ccccc31)c1cc([N+](=O)[O-])cc([N+](=O)[O-])c1-2 | 12.8 |
| CN(C(=O)C(Cc1ccccc1)NC(=O)OC(C)(C)C)C1(C(=O)NC(Cc2ccccc2)C(=O)OCc2ccccc2)CCCC1 (stereo not drawn) (Boc-Phe-[NMeAc5c]-Phe-OBn; configuration not given here) | > 100 |
| Cc1ccc([N+](=O)[O-])cc1NC1=NCCO1 | > 100 |
| O=c1ccc(-c2ccccc2)n[nH]1 | > 100 |
| CCOC(=O)C(SCCO)C(C(=O)OCC)n1cnc2c(=O)[nH]c(NC(C)=O)nc21 (stereo not drawn) | > 100 |
| C#CCNC(CS)C(=O)O (stereo not drawn) | > 100 |
| Cc1ccc(N=NC(=Nc2ccccc2)c2ccc(N(CCC#N)CCC#N)cc2)cc1 | 48.6 |
| Cc1ccccc1C(=O)N1CCc2c([nH]c3ccccc23)C1 | 33.9 |
| NC(=O)NCCCC(NC(=O)OCCCCn1ccc(=O)[nH]c1=O)C(=O)O (stereo not drawn) | > 100 |
| COc1ccc2c(c1)/C(=C/CCN(C)C)c1ccccc1S2 | > 100 |
| NS(=O)(=O)c1ccc2c(c1)OCCOCCOCCOCCO2 | > 100 |
| CCOC(=O)/C=C/CC(C)(C)CCOC(C)=O | > 10 |
| COC(=O)C([C@H](NC1(c2ccccc2)c2ccccc2-c2ccccc21)C(=O)OC)N(NC(=O)OCc1ccccc1)C(=O)OCc1ccccc1 (mixture of isomers) | > 100 |

system: 786-0 renal; assay: inhibition of tumour cell growth, NCI panel, 48 h

| Compound | TGI [µM] |
| --- | --- |
| COc1cc(C(=O)N(C(=S)OCc2ccccn2)c2ccccc2)cc(OC)c1OC | > 100 |
| CCCCCCCCCCCCCCNC(=O)CCC(NC(=O)c1ccc(N(C)Cc2cnc3nc(N)nc(N)c3n2)cc1)C(=O)NCCCCCCCCCCCCCC (stereo not drawn) | 52.1 |
| COc1ccc(N/N=C2\CCOc3ccc(C)cc3C2=O)cc1 | 41.8 |
| NC(N)=N/N=C/c1c(-c2ccc(N)cc2)nc2sccn12 | 62 |
| CCCCCCc1cc2cc(-c3csc(CC#N)n3)c(=O)oc2cc1O | > 64.2 |
| COc1cc(Br)cc2cc(-c3cn4ccsc4n3)c(=O)oc12 | > 100 |
| Nn1c(-c2ccccc2)nn(C(=O)c2ccccc2)c1=O | > 100 |
| O=c1[nH]c(Nc2cccc(CC(F)(F)F)c2)nc2nc[nH]c12 | > 100 |
| Nc1nc(SCCc2ccccc2)c2[nH]cnc2n1 | > 100 |
| COc1ccc(C2CC(c3c(O)ccc4ccccc34)=NN2C(C)=O)cc1OC (stereo not drawn) | > 100 |
| COc1cc2c(c(OC)c1OC)C(=O)[C@@H]1[C@H]2N1C(N)=O | > 100 |
| COc1ccc2cc(NC(=O)N/N=C\c3ccc([N+](=O)[O-])cc3)ccc2c1 | > 100 |
| C[C@@H]1CC[C@]2(C(=O)O)CC[C@]3(C)C(=CC[C@@H]4[C@@]5(C)CC[C@H](O)C(C)(C)[C@@H]5CC[C@]43C)[C@@H]2[C@]1(C)O | 18.7 |
| CN1CCc2cc(N)cc3c2C1Cc1ccc(O)c(O)c1-3 (stereo not drawn) | > 100 |
| O=C1CCCSC(=O)N1Cc1ccccc1 | > 100 |
| COC(=O)c1c(C)cccc1C1CN=NC12Cc1ccc(C)cc1C2=O (stereo not drawn) | > 100 |
| CCCN(C(=O)c1ccccc1)C(C#N)c1ccc(C(C#N)N(CCC)C(=O)c2ccccc2)cc1 (stereo not drawn) | > 100 |
| COC(=O)c1ccccc1CC1Cc2ccc3c(c2C1=O)CCCC3 (stereo not drawn) | > 100 |

| Compound | TGI [µM] |
| --- | --- |
| c1ccc(N=c2sc3ccccc3nc2Nc2ccccc2)cc1 | > 100 |
| O=C1/C(=C/c2ccccc2)N=C2Sc3c(nc[nH]c3=O)N12 | > 100 |
| C=CC1(C)CCC2C(=CCC3C2(C)CC(O)C(O)C3(C)COC2OC(C(=O)O)C(O)C(O)C2O)C1 (stereo not drawn) (tested in a mixture with another compound) | > 100 |
| N#Cc1c(N2CCCC2)ncn(-c2ccccc2)c1=O | > 100 |
| N#CC1(C#N)N[C@@H](c2ccsc2)[C@H]2C(=O)N(c3ccccc3)C(=O)[C@H]21 | > 100 |
| O=[N+]([O-])c1ccc2c(c1)/C(=N/N=C1c3ccccc3Cc3ccccc31)c1cc([N+](=O)[O-])cc([N+](=O)[O-])c1-2 | 3.41 |
| CN(C(=O)C(Cc1ccccc1)NC(=O)OC(C)(C)C)C1(C(=O)NC(Cc2ccccc2)C(=O)OCc2ccccc2)CCCC1 (stereo not drawn) (Boc-Phe-[NMeAc5c]-Phe-OBn; configuration not given here) | > 100 |
| Cc1ccc([N+](=O)[O-])cc1NC1=NCCO1 | > 100 |
| O=c1ccc(-c2ccccc2)n[nH]1 | > 100 |
| CCOC(=O)C(SCCO)C(C(=O)OCC)n1cnc2c(=O)[nH]c(NC(C)=O)nc21 (stereo not drawn) | > 100 |
| C#CCNC(CS)C(=O)O (stereo not drawn) | > 100 |
| Cc1ccc(N=NC(=Nc2ccccc2)c2ccc(N(CCC#N)CCC#N)cc2)cc1 | > 100 |
| Cc1ccccc1C(=O)N1CCc2c([nH]c3ccccc23)C1 | 54.4 |
| NC(=O)NCCCC(NC(=O)OCCCCn1ccc(=O)[nH]c1=O)C(=O)O (stereo not drawn) | > 100 |
| NS(=O)(=O)c1ccc2c(c1)OCCOCCOCCOCCO2 | > 100 |
| CCOC(=O)/C=C/CC(C)(C)CCOC(C)=O | > 10 |
| COC(=O)C([C@H](NC1(c2ccccc2)c2ccccc2-c2ccccc21)C(=O)OC)N(NC(=O)OCc1ccccc1)C(=O)OCc1ccccc1 (mixture of isomers) | > 100 |

system: A498 renal; assay: inhibition of tumour cell growth, NCI panel, 48 h

| Compound | TGI [µM] |
| --- | --- |
| COc1cc(C(=O)N(C(=S)OCc2ccccn2)c2ccccc2)cc(OC)c1OC | > 100 |
| CCCCCCCCCCCCCCNC(=O)CCC(NC(=O)c1ccc(N(C)Cc2cnc3nc(N)nc(N)c3n2)cc1)C(=O)NCCCCCCCCCCCCCC (stereo not drawn) | 34.5 |
